The text below walks through data of patent US10759757B2, “Crystalline contrast agent for magnetic resonance imaging, kit and composition comprising it and their use” (Southern Medical University, priority 2016, dated 2020).

Like-named read-outs stand apart in the source and are kept apart here.

The nature of assay [1]: Longitudinal relaxation time (T1) measurement, r1 relaxivity in deionized water. The format is physicochemical. The procedure:
IR spectra were recorded on a […] 550 infrared spectrometer. Elemental analyses for C, H, and N were performed on an EA1110 CHNS elemental analyzer. Thermogravimetric analysis (TGA) was performed on an SDTA851 Thermogravimetric Analyzer at a heating rate of 10° C. min^-1 under a nitrogen gas flow in an Al2O3 pan. Powder X-ray diffraction (PXRD) spectra were recorded with a Rigaku D/max-2200/PC. The X-ray generated from a sealed Cu tube was mono-chromated by a graphite crystal and collimated by a 0.5 mm MONOCAP (λ Cu-Kα=1.54178 Å). The tube voltage and current were 40 kV and 40 mA, respectively. […] The measurement of the longitudinal relaxation time T1 was conducted at 30° C. Five samples of compounds 1 and 2 were prepared with the concentrations of 31.25, 62.5, 125, 250, and 500 μM in deionized water, respectively. Before the T1 test, these samples were ultrasonicated for 2 min to dissolve the compounds homogeneously in deionized water. The T1 of deionized water was tested as background. The T1 of the MOF solution was corrected from the background. The measurement time of each sample was ca. 2 min. […] On each image, signal intensities were measured by drawing ROIs in the center of each vial. The T1 relaxation times were performed by fitting the acquired inversion recovery images to a following equation: […]1)), where M and M0 are measured and initial magnetization, respectively. […]

For assay [2] the following is noted: literature values; cited from earlier work.

`O=C([O-])CN(CCN(CC(=O)[O-])CC(=O)O)CCN(CC(=O)[O-])CC(=O)O.[Gd+3]` [Gd-DTPA] yielded a r1 relaxivity in assay [1] (0.5 T, 30° C., deionized water, 31.25 to 500 μM) of 4.87 mM⁻¹ s⁻¹. Also, in assay [1] (3T, in water), the “relaxivity rates (r1), MRI phantom measurement” value amounted to 4.98 mM^−1S^−1. Turning to `CNC(=O)CN(CCN(CCN(CC(=O)[O-])CC(=O)NC)CC(=O)[O-])CC(=O)[O-].[Gd+3]` [OmniScan], in assay [2], the r1 relaxivity is 4.1 mM⁻¹ s⁻¹.
